Source: patent publication US6057340A, “Oxazole derivatives as serotonin-1A receptor agonists” (American Home Products Corporation, priority 1999, dated 2000)
pKi: −log10 of the molar value.

Target: T1, human 5HT1A receptor (Homo sapiens, UniProt P08908)
T1 construct: expressed in transfected cells
T1 sequence (P08908 1-422): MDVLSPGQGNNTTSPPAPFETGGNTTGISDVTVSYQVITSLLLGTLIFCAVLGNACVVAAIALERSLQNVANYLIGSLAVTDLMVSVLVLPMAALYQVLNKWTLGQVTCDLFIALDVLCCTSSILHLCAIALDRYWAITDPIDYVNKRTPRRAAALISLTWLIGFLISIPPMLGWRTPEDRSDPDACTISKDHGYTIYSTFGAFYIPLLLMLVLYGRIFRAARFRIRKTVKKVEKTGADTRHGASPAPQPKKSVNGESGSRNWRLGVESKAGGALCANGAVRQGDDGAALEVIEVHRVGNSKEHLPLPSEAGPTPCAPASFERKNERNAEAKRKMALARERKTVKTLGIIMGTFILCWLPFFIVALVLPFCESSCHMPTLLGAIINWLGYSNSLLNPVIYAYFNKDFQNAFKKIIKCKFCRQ
Test: displacement of [^3 H] 8-OH-DPAT binding in CHO cells stably transfected with human 5HT1A receptor
Settings: final ligand concentration 1.5 nM, 30 minute incubation at room temperature
Description: The compounds of this invention are 5-HT1A agonists. Affinity for the serotonin 5-HT1A receptor was established in a standard pharmacological test procedure which measures the compound's ability to displace [^3 H] 8-OH-DPAT binding in CHO cells stably transfected with human 5HT1A receptor. Stably transfected CHO cells are grown in DMEM containing 10% heat inactivated FBS and non-essential amino acids. Cells are scraped off the plate, transferred to centrifuge tubes, and washed twice by centrifugation (2000 rpm for 10 min., 4° C.) in buffer (50 mM Tris pH 7.5). The resulting pellets are aliquoted and placed at -80° C. On the day of assay, the cells are thawed on ice and resuspended in buffer. The binding assay is performed in a 96 well microtiter plate in a total volume of 250 μL. Non-specific binding is determined in the presence of […], final ligand concentration is 1.5 nM. Following a 30 minute incubation at room temperature, the reaction is terminated by the addition of ice cold buffer and rapid filtration through a GF/B filter presoaked for 30 minutes in 0.5% PEI. Compounds are initially tested in a single point assay to determine percent inhibition at […], and Ki values are determined for the active compounds.

- pKi: 8.36
SMILES: COc1ccccc1C1CCN(Cc2oc(C3CCCCC3)nc2Cc2ccccc2)CC1 [Example 9, 1-(4-Benzyl-2-cyclohexyl-oxazol-5-ylmethyl)-4-(2-methoxy-phenyl)-piperidine]
